From publication PMC6941952, “A homogeneous bioluminescent immunoassay to probe cellular signaling pathway regulation” (Communications Biology, 2020)
“And” between values parts separate entries of the source, which are not always exact repeats. Equal entries are not always repeated.

Test system: STAT3 Phospho-Tyr705
Experiment: NanoBiT pSTAT3 cell-based immunoassay in A431 cells
Parameters: species or system human
Settings: for Raw data P-STAT3 / Subtract reagent background P-STAT3 / P-STAT3 (% compared to no inhibitor) / Average P-STAT3 (% compared to no inhibitor): IL-6 10 ng/ml, A431, Fig 6e; for P-STAT3 (% compared to no inhibitor): replicate
Procedure: Prior to NanoBiT Cell-Based Immunoassay, 50,000 cells were seeded in 160 µl of complete growth media per well of a 96-well plate and incubated overnight. […] If necessary, the cell culture media were replaced with serum-free media after the cells were stably adherent on the plate and incubated overnight. To treat cells with activators or inhibitors, medium was changed to 30 µl of medium containing inhibitors. If activation of a specific pathway is needed, the cells were stimulated with 10 µl of medium containing activators. To lyse the cells, 10 µl of lysis buffer containing 0.1% digitonin diluted in 1X immunoassay buffer with protease and phosphatase inhibitors was added and the plates were mixed vigorously for 20 min. Then, 50 µl of an antibody mix containing two primary antibodies against the target protein and NanoBiT detecting antibodies (0.3 µl each per well), diluted in 1X immunoassay buffer was added to the lysates. The plates were incubated at 23 °C for 90 min, followed by the addition of 25 µl of Nano-Glo® reagent consisting of Nano-Glo® Luciferase Assay Substrate mixed with 1X immunoassay buffer. Luminescence was measured using a plate-reading luminometer.
Single dose or dose response inhibitor treatments were performed prior to activation of the pathways as follows. For IκBα, the cells were treated in 30 µl medium with IKK16 or MG132 for 60 min before the addition of 10 µl of DMEM containing appropriate concentration of TNFα. To measure phosphorylation of AKT or STAT3, the corresponding NanoBiT immunoassays were developed with MCF-7 or A431 cells, respectively, according the same scheme used to develop the IκBα assay using the primary antibodies for AKT and STAT3 described in the reagents section. […] Treatment with LY294002 was performed in 30 µl medium and cells were incubated for 60 min before the addition of 1 µM Insulin. To measure STAT3 phosphorylation, A431 cells were incubated overnight in DMEM medium without serum. […] After addition of the stimulators, the cells were incubated for additional times as follows. IκBα phosphorylation and degradation analyses required both time courses and single time points as described in figures. […] The NanoBiT immunoassay protocol was followed as described above.
All 96-well assay plates were read using a GloMax® 96 Microplate Luminometer from Promega. The instrument was set to 0.5 s integration time. In order to obtain net change of signal, the reagent background values (signal from the well containing all reagent except primary antibodies) were subtracted from the sample values. To plot and analyze the data, Microsoft Excel and GraphPad Prism® Software were used. IC50 values were determined by using a nonlinear regression fit to a sigmoidal dose response (variable slope).

[1] = A431 cells, pretreated 1 h, IL-6 10 ng per ml 30 min

## Tocilizumab: humanized monoclonal antibody against the IL-6 receptor, approved immunosuppressive drug
[1]
  IC50, inhibition of Phospho-STAT3: 0.16 µg/mL
  STAT3 phosphorylation / JAK2-STAT3 pathway activation, dose response: inhibited
Actemra 7.62939e-5 ug/ml
  Raw data P-STAT3: 317500 and 271600 and 267300
  Subtract reagent background P-STAT3: 173175 and 168875 and 219075
  P-STAT3 (% compared to no inhibitor): 117.6%
Actemra 0.000305176 ug/ml
  Raw data P-STAT3: 341900 and 251000 and 260600
  Subtract reagent background P-STAT3: 155645 and 165245 and 246545
  P-STAT3 (% compared to no inhibitor): 91.7% and 120.7%
Actemra 0.0012207 ug/ml
  Raw data P-STAT3: 299200 and 250300 and 276700
  Subtract reagent background P-STAT3: 153990 and 180390 and 202890
Actemra 0.00488281 ug/ml
  Average P-STAT3 (% compared to no inhibitor): 74.6%
  Raw data P-STAT3: 245000 and 216200 and 217700
  Subtract reagent background P-STAT3: 121185 and 122685 and 149985
  P-STAT3 (% compared to no inhibitor): 82.3% and 68.1% and 73.4%
Actemra 0.0195312 ug/ml
  Average P-STAT3 (% compared to no inhibitor): 41.8%
  Raw data P-STAT3: 170000 and 159800 and 165700
  Subtract reagent background P-STAT3: 67955 and 73855 and 78155
  P-STAT3 (% compared to no inhibitor): 46.2% and 41.0% and 38.2%
Actemra 0.078125 ug/ml
  Average P-STAT3 (% compared to no inhibitor): 19.4%
  Raw data P-STAT3: 138700 and 129600 and 119000
  Subtract reagent background P-STAT3: 34580 and 23980 and 43680
  P-STAT3 (% compared to no inhibitor): 23.5% and 13.3% and 21.4%
Actemra 0.3125 ug/ml
  Average P-STAT3 (% compared to no inhibitor): 9.3%
  Raw data P-STAT3: 116800 and 110300 and 113700
  Subtract reagent background P-STAT3: 13270 and 16670 and 19770
  P-STAT3 (% compared to no inhibitor): 9.0% and 9.3% and 9.7%
Actemra 5 ug/ml
  Average P-STAT3 (% compared to no inhibitor): 7.9%
  Raw data P-STAT3: 110700 and 107600 and 97720
  P-STAT3 (% compared to no inhibitor): 10.8% and 3.4% and 9.3%
Actemra 20 ug/ml
  Average P-STAT3 (% compared to no inhibitor): 7.7%
  Raw data P-STAT3: 106200 and 97590
  P-STAT3 (% compared to no inhibitor): 11.0% and 4.2% and 7.9%
Actemra […]
  Average P-STAT3 (% compared to no inhibitor): 7.7%
